Earlier results in patent US20220160665A1, “COMPOSITION IN MICRO-ENCAPSULATED FORM, BASED ON N-BUTYRICACID OR DERIVATIVES THEREOF, FOR TREATING CROHNS DISEASE OR ULCERATIVE RECTAL COLITIS” (SILA S.R.L., priority 2019, published 2022).

Settings: solid granular form, white-coloured powder, commercially available

In the case of CCCC(=O)[O-].[Na+] [sodium salt of the n-butyric acid], the “temperature up to which stable” value is given as “up to 250 °C”.
